Our source for the IC50 values is patent publication US8791113B2, “2,4-diaryl-substituted [1,8] naphthyridines as kinase inhibitors for use against cancer” (Merck Patent GmbH, priority 2010, dated 2014).

Structures are written as SMILES.

The test system of experiment [1] is TGF-beta-induced phosphorylation of Smad2 (Ser465/467) and Smad3 (Ser423/425) in Mv1-Lu cells. The experiment is described as follows: Inhibition of Smad2/3 phosphorylation in Mv1Lu cells (PathScan Phospho-Smad2 ELISA). Format: cell-based, mink Mustela vison. The settings on record: Neogale vison, Mv1-Lu cells, TGF-beta 1 5 ng/ml, Phospho-Smad2/3 ELISA, read-out: TβR activity (Example 51). As for the experimental part:
Inhibition of Smad2/3 Phosphorylation in Mv1 Lu Cells by TGF-Beta Receptor I Kinase Inhibitors
This assay was used to determine the inhibitory potency of compounds on TGF-beta-induced phosphorylation of Smad2 (Ser465/467) and Smad3 (Ser423/425). Mv1-Lu cells (lung epithelial cell line from mink Mustela vison; ATCC number: CCL-64) were seeded in DMEM (Invitrogen) supplemented with 10% fetal bovine serum (Pan Biotech) at a defined cell density in 24-well or 96-well plates (24-well plate: 1.5×10^5 cells per well; 96-well plate: 4×10^4 cells per well). Cell cultures were incubated in DMEM at 37° C. and 10% CO2. On the next day, the medium was replaced and cells were serum-starved for 16-20 hours. The following day, serial dilutions of compounds were added to the wells, pre-incubated for 1.5 hrs before recombinant TGF-beta 1 ligand (final concentration 5 ng/ml; R&D systems) was added. After one hour of ligand stimulation, lysates were prepared and analyzed using an enzyme-linked immunosorbent assay kit (PathScan Phospho-Smad2 Kit, Cell Signaling Technologies). The ELISA detects phosphorylated Smad2 as well as phosphorylated Smad3 with the phospho-specific antibody. TGF-beta stimulated cells and unstimulated cells served as positive and negative controls (100% and background control). The concentration of the vehicle DMSO was kept constant at 0.2% (v/v) in all wells. Dose-response relationships were fitted using curve fitting algorithms of the RS1 statistics software package (Brooks Automation Inc. RS/1- Statistical Tools Handbook. Release 6.2) to determine the concentration at which half-maximal inhibition (IC50) of Smad2/3 phosphorylation was achieved.
On the technique in general: An ELISA detects its analyte on a solid surface through an enzyme-linked reagent.

Experiment [2] concerns the target T1, GST-ALK5 (TGF-beta receptor kinase) (Homo sapiens, UniProt P36897).
T1 sequence (P36897 34-503): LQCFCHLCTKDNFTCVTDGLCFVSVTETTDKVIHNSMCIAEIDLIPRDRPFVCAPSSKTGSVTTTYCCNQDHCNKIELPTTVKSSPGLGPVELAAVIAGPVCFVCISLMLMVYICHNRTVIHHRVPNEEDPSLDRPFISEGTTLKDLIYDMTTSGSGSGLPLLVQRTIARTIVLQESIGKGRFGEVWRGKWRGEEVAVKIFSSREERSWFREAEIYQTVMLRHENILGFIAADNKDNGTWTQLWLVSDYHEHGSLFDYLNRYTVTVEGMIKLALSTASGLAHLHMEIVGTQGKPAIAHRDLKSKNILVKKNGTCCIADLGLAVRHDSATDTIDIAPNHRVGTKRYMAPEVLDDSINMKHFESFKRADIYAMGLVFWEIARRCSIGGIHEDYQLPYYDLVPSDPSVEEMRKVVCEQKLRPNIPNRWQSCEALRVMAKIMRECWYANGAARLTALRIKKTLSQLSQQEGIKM
In words: In-vitro (enzyme) kinase flashplate assay: GST-ALK5 phosphorylation of GST-SMAD2 with 33P-ATP. The format is biochemical. The settings on record: 384-well flashplate kinase assay, GST-ALK5 / GST-SMAD2, 33P-ATP, 30° C., 45 min; read-out: TβR activity (Example 50). As for the experimental part:
In-vitro (Enzyme) Assay for Determination of the Efficacy of Inhibitors of the Inhibition of TGF-Beta-Mediated Effects
The kinase assay was carried out as 384-well flashplate assay. 31.2 nM of GST-ALK5, 439 nM of GST-SMAD2 and 3 mM of ATP (with 0.3 μCi of ^33P-ATP/well) were incubated in a total volume of 35 μl (20 mM of HEPES, 10 mM of MgCl2, 5 mM of MnCl2, 1 mM of DTT, 0.1% of BSA, pH 7.4) without or with test substance (5-10 concentrations) at 30° C. for 45 min. The reaction was stopped using 25 μl of 200 mM EDTA solution, filtered with suction at room temperature after 30 min, and the wells were washed with 3 times 100 μl of 0.9% NaCl solution. Radioactivity was measured in the TopCount. The IC50 values were calculated using RS1.

In the case of `Nc1nccc2c(-c3cc(-c4ccccc4F)nc4ncccc34)nccc12` [Compound 14, 5-[2-(2-Fluoro-phenyl)-[1,8]naphthyridin-4-yl]-[2,6]naphthyridin-1-ylamine], the IC50 in experiment [1] and in experiment [2] was less than 1000 nM in each case. For `Nc1nccc2c(-c3cc(-c4cc(C(F)(F)F)ccc4F)nc4ncccc34)cccc12` [Compound 8, 5-[2-(2-Fluoro-5-trifluoromethyl-phenyl)-[1,8]naphthyridin-4-yl]-isoquinolin-1-ylamine], the IC50 in experiment [1] and in experiment [2] was less than 1000 nM throughout. Regarding `Fc1ccc(Cl)cc1-c1cc(-c2cncc3ncccc23)c2cccnc2n1` [Compound 37, 5-[2-(5-Chloro-2-fluoro-phenyl)-[1,8]naphthyridin-4-yl]-[1,7]naphthyridine], the results for the IC50 in experiment [1] and in experiment [2] were 1000 to 10000 nM and less than 1000 nM, respectively. Taken in the same sequence, the figures for `Nc1nccc2c(-c3cc(-c4cc(Cl)ccc4F)nc4ncccc34)nccc12` [Compound 11, 5-[2-(5-Chloro-2-fluoro-phenyl)-[1,8]naphthyridin-4-yl]-[2,6]naphthyridin-1-ylamine] were less than 1000 nM and less than 1000 nM. As to `O=c1c2cnccc2c(-c2cc(-c3cc(Cl)ccc3F)nc3ncccc23)cn1CCO` [Compound 68, 4-[2-(5-Chloro-2-fluoro-phenyl)-[1,8]naphthyridin-4-yl]-2-(2-hydroxy-ethyl)-2H-[2,7]naphthyridin-1-one], the IC50 in experiment [1] and in experiment [2] was less than 1000 nM each time. Consider `Cc1occc1-c1cc(-c2c[nH]c3cnccc23)c2cccnc2n1` [Compound 108, 2-(2-Methyl-furan-3-yl)-4-(1H-pyrrolo[2,3-c]pyridin-3-yl)-[1,8]naphthyridine], for which the IC50 in experiment [1] and in experiment [2] was less than 1000 nM in each case. Turning to `Cc1cccc(-c2cc(-c3cccc4c(N)nccc34)c3cccnc3n2)n1` [Compound 6, 5-[2-(6-Methyl-pyridin-2-yl)-[1,8]naphthyridin-4-yl]-isoquinolin-1-ylamine], the IC50 in experiment [1] and in experiment [2] was less than 1000 nM throughout. For the molecule `Nc1nccc2c(-c3cc(-c4cc(Cl)ccc4F)nc4ncccc34)cccc12` [Compound 4, 5-[2-(5-Chloro-2-fluoro-phenyl)-[1,8]naphthyridin-4-yl]-isoquinolin-1-ylamine], the IC50 in experiment [1] and in experiment [2] was less than 1000 nM each time.

On to `O=c1c2cnccc2c(-c2cc(-c3ccccc3F)nc3ncccc23)cn1CCO` [Compound 67, 4-[2-(2-Fluoro-phenyl)-[1,8]naphthyridin-4-yl]-2-(2-hydroxy-ethyl)-2H-[2,7]naphthyridin-1-one], for which the IC50 is 1000 to 10000 nM in experiment [1] and less than 1000 nM in experiment [2]. As to `Cn1cc(-c2cnc3nc(-c4ccccc4F)cc(-c4nccc5c(N)nccc45)c3c2)cn1` [Compound 116, 5-[2-(2-Fluoro-phenyl)-6-(1-methyl-1H-pyrazol-4-yl)-[1,8]naphthyridin-4-yl]-[2,6]naphthyridin-1-ylamine], the IC50 in experiment [1] and in experiment [2] was more than 10000 nM throughout.

Turning to `Nc1nccc2c(-c3cc(-c4ccccc4F)nc4ncccc34)ccc(OCCO)c12` [Compound 79, 2-{1-Amino-5-[2-(2-fluoro-phenyl)-[1,8]naphthyridin-4-yl]-isoquinolin-8-yloxy}-ethanol], the IC50 in experiment [1] and in experiment [2] was less than 1000 nM in each case.

Consider `O=c1c2cnccc2c(-c2cc(-c3cc(Cl)ccc3F)nc3ncccc23)cn1CCN1CCCC1` [Compound 91, 4-[2-(5-Chloro-2-fluoro-phenyl)-[1,8]naphthyridin-4-yl]-2-(2-pyrrolidin-1-yl-ethyl)-2H-[2,7]naphthyridin-1-one], for which the IC50 in experiment [1] and in experiment [2] was less than 1000 nM each time. On to `Nc1ccc2cnccc2c1-c1cc(-c2ccccc2F)nc2ncccc12` [Compound 62, 5-[2-(2-Fluoro-phenyl)-[1,8]naphthyridin-4-yl]-isoquinolin-6-ylamine], for which the IC50 was 1000 to 10000 nM in experiment [1] and less than 1000 nM in experiment [2]. On the same counts, the results for `O=c1c2cnccc2c(-c2cc(-c3cc(F)ccc3F)nc3ncccc23)cn1CCO` [Compound 72, 4-[2-(2,5-Difluoro-phenyl)-[1,8]naphthyridin-4-yl]-2-(2-hydroxy-ethyl)-2H-[2,7]naphthyridin-1-one] are less than 1000 nM and less than 1000 nM. For the molecule `Nc1nccc2c(-c3cc(-c4ccccc4F)nc4ncccc34)ccnc12` [Compound 113, 4-[2-(2-Fluoro-phenyl)-[1,8]naphthyridin-4-yl]-[1,7]naphthyridin-8-ylamine], the IC50 in experiment [1] and in experiment [2] was less than 1000 nM in each case. Consider `OCCOc1ccc(-c2cc(-c3ccccc3F)nc3ncccc23)c2ccncc12` [Compound 39, 2-{5-[2-(2-Fluoro-phenyl)-[1,8]naphthyridin-4-yl]-isoquinolin-8-yloxy}-ethanol], for which, in experiment [1], the IC50 was less than 1000 nM. Regarding `Fc1ccccc1-c1cc(-c2cnc(OCCN3CCOCC3)c3cnccc23)c2cccnc2n1` [Compound 78, 2-(2-Fluoro-phenyl)-4-[1-(2-morpholin-4-yl-ethoxy)-[2,7]naphthyridin-4-yl]-[1,8]naphthyridine], the IC50 in experiment [1] was 1000 to 10000 nM; in experiment [2], less than 1000 nM.

With `Cc1cccc(-c2cc(-c3nccc4cnccc34)c3cccnc3n2)n1` [Compound 7, 2-(6-Methyl-pyridin-2-yl)-4-[2,6]naphthyridin-1-yl-[1,8]naphthyridine], the IC50 in experiment [1] is 1000 to 10000 nM; in experiment [2], less than 1000 nM. As for `O=c1c2cnccc2c(-c2cc(-c3cc(Cl)ccc3F)nc3ncccc23)cn1CCN1CCOCC1` [Compound 76, 4-[2-(5-Chloro-2-fluoro-phenyl)-[1,8]naphthyridin-4-yl]-2-(2-morpholin-4-yl-ethyl)-2H-[2,7]naphthyridin-1-one], the IC50 in experiment [1] and in experiment [2] was 1000 to 10000 nM each time. In the case of `O=[N+]([O-])c1ccc(-c2cc(-c3ccccc3F)nc3ncccc23)c2ccncc12` [Compound 16, 2-(2-Fluoro-phenyl)-4-(8-nitro-isoquinolin-5-yl)-[1,8]naphthyridine], the IC50 in experiment [1] was less than 1000 nM. The same measure, in the same setting: the result for `Nc1cc2c(-c3cc(-c4cc(Cl)ccc4F)nc4ncccc34)cccc2cn1` [Compound 49, 5-[2-(5-Chloro-2-fluoro-phenyl)-[1,8]naphthyridin-4-yl]-isoquinolin-3-ylamine] reads more than 10000 nM; that for `Nc1ccc(-c2cc(-c3ccccc3F)nc3ncccc23)c2ccncc12` [Compound 41, 5-[2-(2-Fluoro-phenyl)-[1,8]naphthyridin-4-yl]-isoquinolin-8-ylamine], less than 1000 nM. With `CC(=O)Nc1nccc2c(-c3cc(-c4ccccc4F)nc4ncccc34)nccc12` [Compound 69, N-{5-[2-(2-Fluoro-phenyl)-[1,8]naphthyridin-4-yl]-[2,6]naphthyridin-1-yl}-acetamide], the IC50 in experiment [2] is less than 1000 nM.

Turning to `Nc1ncnc2c(-c3cc(-c4ccccc4F)nc4ncccc34)nccc12` [Compound 36, 8-[2-(2-Fluoro-phenyl)-[1,8]naphthyridin-4-yl]-pyrido[3,4-d]pyrimidin-4-ylamine], the IC50 in experiment [1] was more than 10000 nM. As for `Nc1ncnc2c(-c3cc(-c4ccccc4F)nc4ncccc34)cccc12` [Compound 15, 8-[2-(2-Fluoro-phenyl)-[1,8]naphthyridin-4-yl]-quinazolin-4-ylamine], the IC50 in experiment [1] lay in the range of 1000 to 10000 nM. Same read-out and setting: the result for `COCCn1cc(-c2cc(-c3cc(Cl)ccc3F)nc3ncccc23)c2ccncc21` [Compound 5, 2-(5-Chloro-2-fluoro-phenyl)-4-[1-(2-methoxy-ethyl)-1H-pyrrolo[2,3-c]pyridin-3-yl]-[1,8]naphthyridine] reads less than 1000 nM.
